Marks after values point to notes of the source that are not given here.
Test system: herpes simplex infections
Assay type: in vivo, Human
Details: for Side Effects: human, in vivo; for Number Days To > 90% Improvement: topical, 1% in aqueous 30% ethanol and 5% neopurcellin, genital and oral herpes patients, placebo 6.250
Method: A clinical study was performed in a. classical double blind format with numbered vials containing either 1% sodium deoxycholic acid (DOC)in an aqueous solution of 30% ethanol and 5% neopurcellin (a mixture of inert medium chain fatty acids). The placebo was exactly the same, except that it lacked the sodium deoxycholic acid.

Row | SMILES | Efficacy by site of infection (genital / oral herpes) (description in words, patients of Example 2) | Side Effects | reduction of significant signs of herpes simplex infections including erythema, edema, vesiculation, ulceration and pain (summary of findings of Example 2) | Number Days To > 90% Improvement [days]
1 | CC[N+](C)(CC)CCO[C@H]1CC[C@@]2(C)C(=CC[C@H]3[C@@H]4CC[C@H]([C@@H](C)O)[C@@]4(C)CC[C@@H]32)C1 [TX047, 3-beta-[2-(Diethylamino)ethoxy]-20-beta-hydroxypregn-5-ene methyl p-toluenesulphonate] | approx. 60% genital, 40% oral herpes. Efficacy was greatest in the treatment of oral infec-tions and less but clearly active, and use-ful for genital herpes. | 2* | markedly reduce the significant signs of herpes simplex infections | 1.774
2 | C[C@H](CCC(=O)O)[C@H]1CC[C@H]2[C@@H]3CC[C@@H]4C[C@H](O)CC[C@]4(C)[C@H]3C[C@H](O)[C@]12C [DOC, sodium deoxycholic acid] |  | 1* |  | 1.608

From patent EP0113998A2, “Composition and treatment for herpes simplex viral infections” (priority 1982, dated 1984)
